Consider four compounds from patent US20080260857A1, “Substance and Method for Treating Neoplasms” (priority 2005, published 2008).

The test system of this assay is myeloma NS/0 cells. The assay can be described thus: Myeloma NS/0 tumor in mice. The class given is in vivo, DBA/BALB(F1) mice. To be noted: Table 3; i.p. 0.5 ml once a day for 5 days from day 3; Succinate 0.1 mg/mouse, IFN 10^5 IU/mouse, rubomicin 0.016 mg/mouse, etoposide 0.03 mg/mouse; day 21; light water 99.90%; mean ±SD (n=5). As to the method:
Procedure. DBA/BALB(F1) mice were injected i.p. with 3×10^6 myeloma NS/0 cells to induces tumor. Myeloma NS/O-bearing mice were treated for 5 days since the third day of tumor implantation singly a day with i.p. injection of 0.5 ml saline made on the control water or 0.5 ml saline made on light water. Tumor masses and percent of mitotic cells in bone marrow were measured on day 21. Data are presented in Table 2 as tumor mass mean ±SD (n=5).
Materials and tumor implantation procedure were as described in example 3. Interferon-alpha2b, rubomicin, and etoposide were used as typical anti-neoplasm agents.
Myeloma NS/O-bearing mice were treated for 5 days since the third day singly a day with i.p. injection of 0.5 ml saline made on the water (control), 0.5 ml solution of 0.1 mg/mouse disodium succinate hexahydrate (Succinate) made on the control water, 0.5 ml solution of 10^5 IU/mouse interferon-alpha2b (IFN) made on the control water, 0.5 ml solution of 0.016 mg/mouse rubomicin made on the control water, 0.5 ml solution of 0.03 mg/mouse etoposide made on the control water; 0.5 ml saline made on light water, or 0.5 ml solution of 0.1 mg/mouse disodium succinate hexahydrate (Succinate) made on the light water, and 0.5 ml solution of 10^5 IU/mouse interferon-alpha2b (IFN) made on the light water, 0.5 ml solution of 0.016 mg/mouse rubomicin made on the light water, 0.5 ml solution of 0.03 mg/mouse etoposide made on the light water. Tumor masses were measured on day 21. Data are presented in Table 3 as tumor mass mean ±SD (n=5).
Turning to `O.O.O.O.O.O.O=C([O-])CCC(=O)[O-].[Na+].[Na+]` [Control water + Succinate, disodium succinate hexahydrate], the “Tumor Mass” value amounted to 1780 ± 220 mg/mouse.

`COc1cc([C@@H]2c3cc4c(cc3[C@@H](O[C@@H]3O[C@@H]5CO[C@@H](C)O[C@H]5[C@H](O)[C@H]3O)[C@H]3COC(=O)[C@H]23)OCO4)cc(OC)c1O` [Control water + etoposide, etoposide]: the “Tumor Mass” value amounted to 1050 ± 120 mg/mouse.

On to “interferon-alpha2b [Control water + IFN]”, for which the “Tumor Mass” value was determined as 1460 ± 180 mg/mouse.

rubomicin [Control water + rubomicin]: the “Tumor Mass” value is on record as 1270 ± 150 mg/mouse.
